Reference: patent US8921376B2, “Pyrrolopyridines useful as inhibitors of protein kinase” (Vertex Pharmaceuticals Incorporated, priority 2005, dated 2014)

Tests used:
Type in all cases: biochemical
Settings in all cases: Table 6; enzyme inhibition data (Ki)
[1] = target: T1, JAK3 (Homo sapiens, UniProt P52333); assay: JAK3 inhibition assay (33P incorporation into poly(Glu)4Tyr)
T1 sequence (P52333 1-1124): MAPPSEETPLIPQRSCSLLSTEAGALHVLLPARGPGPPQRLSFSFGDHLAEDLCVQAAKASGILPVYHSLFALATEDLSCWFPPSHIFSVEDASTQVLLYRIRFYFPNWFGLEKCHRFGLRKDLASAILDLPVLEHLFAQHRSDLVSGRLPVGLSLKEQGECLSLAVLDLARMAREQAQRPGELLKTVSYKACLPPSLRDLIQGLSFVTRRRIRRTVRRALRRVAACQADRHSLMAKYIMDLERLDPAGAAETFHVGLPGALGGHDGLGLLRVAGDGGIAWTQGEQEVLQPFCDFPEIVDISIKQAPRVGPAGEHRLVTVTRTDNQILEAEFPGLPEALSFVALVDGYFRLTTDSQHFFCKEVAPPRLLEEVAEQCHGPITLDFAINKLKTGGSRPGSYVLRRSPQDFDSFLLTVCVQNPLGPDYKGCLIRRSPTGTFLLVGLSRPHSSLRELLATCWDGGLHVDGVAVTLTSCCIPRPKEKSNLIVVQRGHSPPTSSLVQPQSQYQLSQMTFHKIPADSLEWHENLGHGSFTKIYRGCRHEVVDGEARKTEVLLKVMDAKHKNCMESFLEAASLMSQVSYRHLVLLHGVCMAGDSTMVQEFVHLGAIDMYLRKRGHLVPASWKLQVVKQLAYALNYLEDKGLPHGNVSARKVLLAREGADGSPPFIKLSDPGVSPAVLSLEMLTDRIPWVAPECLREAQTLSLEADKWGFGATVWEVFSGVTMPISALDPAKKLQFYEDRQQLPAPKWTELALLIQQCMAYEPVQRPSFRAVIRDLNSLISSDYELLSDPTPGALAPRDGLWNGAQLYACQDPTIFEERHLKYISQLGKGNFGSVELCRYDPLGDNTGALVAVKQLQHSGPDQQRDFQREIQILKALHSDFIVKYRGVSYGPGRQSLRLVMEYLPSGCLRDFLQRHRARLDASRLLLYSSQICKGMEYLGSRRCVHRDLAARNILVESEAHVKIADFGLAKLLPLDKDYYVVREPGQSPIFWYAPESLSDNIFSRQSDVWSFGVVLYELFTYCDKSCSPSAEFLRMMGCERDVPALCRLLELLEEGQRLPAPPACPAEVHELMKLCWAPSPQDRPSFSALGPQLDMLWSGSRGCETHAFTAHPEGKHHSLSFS
Method in brief: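 Human JAK3 at 1 nM phosphorylated 1 μM poly(Glu)4Tyr using 5 μM [33P]ATP in HEPES pH 7.4 buffer with MgCl2, DTT and BSA. Reactions ran 20 min at 25° C. and were stopped with TCA. 33P incorporation was measured by scintillation after glass-fiber filter capture.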

[2] = target: JAK2 (Homo sapiens, UniProt O60674); assay: JAK2 inhibition assay (as Example 3 with JAK-2 enzyme)
Method in brief: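 Radiometric JAK2 kinase assay: poly(Glu)4Tyr substrate at final 15 μM, ATP at final 12 μM with [33P]; buffer 100 mM HEPES pH 7.4, 1 mM DTT, 10 mM MgCl2, 25 mM NaCl, 0.01% BSA. 20 min at 25 °C, TCA-stopped, 33P incorporation counted after filter capture.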

[3] = target: ROCK I (Homo sapiens, UniProt Q13464); assay: ROCK-I inhibition assay (radioactive enzyme assay, MBP substrate)
Method in brief: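 Human ROCK at 5 nM phosphorylated 27 μM myelin basic protein with 13 μM [γ-33P]ATP (final) in HEPES pH 7.5, MgCl2, NaCl, DTT and 1.5% DMSO. Reactions ran 2 h at room temperature before TCA quench and filter-plate scintillation counting. After background subtraction, data were fit to give Ki(app).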

Sequence of ROCK I (Q13464 whole entry): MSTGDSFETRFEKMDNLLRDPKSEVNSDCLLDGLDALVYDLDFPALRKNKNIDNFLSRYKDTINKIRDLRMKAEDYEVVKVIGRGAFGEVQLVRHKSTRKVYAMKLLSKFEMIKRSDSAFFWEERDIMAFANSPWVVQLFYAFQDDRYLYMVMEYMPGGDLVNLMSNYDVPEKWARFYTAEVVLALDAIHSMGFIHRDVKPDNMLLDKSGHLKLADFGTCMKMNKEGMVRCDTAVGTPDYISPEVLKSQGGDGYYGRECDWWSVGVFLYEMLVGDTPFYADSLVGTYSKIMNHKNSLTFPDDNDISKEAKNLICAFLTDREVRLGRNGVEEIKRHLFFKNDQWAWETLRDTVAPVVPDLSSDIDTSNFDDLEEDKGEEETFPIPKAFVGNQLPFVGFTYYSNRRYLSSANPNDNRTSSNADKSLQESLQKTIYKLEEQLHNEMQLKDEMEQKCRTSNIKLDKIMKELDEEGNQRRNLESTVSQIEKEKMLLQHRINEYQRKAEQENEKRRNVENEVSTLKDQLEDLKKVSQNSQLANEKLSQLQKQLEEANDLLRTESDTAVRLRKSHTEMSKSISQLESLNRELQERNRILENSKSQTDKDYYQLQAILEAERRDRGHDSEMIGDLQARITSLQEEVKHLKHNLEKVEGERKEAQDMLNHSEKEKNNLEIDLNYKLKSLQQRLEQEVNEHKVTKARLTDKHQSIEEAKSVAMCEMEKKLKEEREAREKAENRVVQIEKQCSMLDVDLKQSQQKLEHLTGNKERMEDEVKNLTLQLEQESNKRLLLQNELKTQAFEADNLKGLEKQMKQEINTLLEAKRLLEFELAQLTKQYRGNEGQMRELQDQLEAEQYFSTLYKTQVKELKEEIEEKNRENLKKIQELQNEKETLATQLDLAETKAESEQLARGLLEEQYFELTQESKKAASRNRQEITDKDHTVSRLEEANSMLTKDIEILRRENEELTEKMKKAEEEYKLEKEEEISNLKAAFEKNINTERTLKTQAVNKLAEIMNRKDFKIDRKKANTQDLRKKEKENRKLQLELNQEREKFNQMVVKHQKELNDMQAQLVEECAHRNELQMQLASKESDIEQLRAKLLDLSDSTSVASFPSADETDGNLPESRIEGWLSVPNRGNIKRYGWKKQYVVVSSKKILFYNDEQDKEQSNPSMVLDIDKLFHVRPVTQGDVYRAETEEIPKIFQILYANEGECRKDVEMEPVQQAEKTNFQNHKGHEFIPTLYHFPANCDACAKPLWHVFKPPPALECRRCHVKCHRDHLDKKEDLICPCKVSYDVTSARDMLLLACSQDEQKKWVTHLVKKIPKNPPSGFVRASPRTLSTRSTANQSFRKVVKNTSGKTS
Sequence of JAK2 (O60674 whole entry): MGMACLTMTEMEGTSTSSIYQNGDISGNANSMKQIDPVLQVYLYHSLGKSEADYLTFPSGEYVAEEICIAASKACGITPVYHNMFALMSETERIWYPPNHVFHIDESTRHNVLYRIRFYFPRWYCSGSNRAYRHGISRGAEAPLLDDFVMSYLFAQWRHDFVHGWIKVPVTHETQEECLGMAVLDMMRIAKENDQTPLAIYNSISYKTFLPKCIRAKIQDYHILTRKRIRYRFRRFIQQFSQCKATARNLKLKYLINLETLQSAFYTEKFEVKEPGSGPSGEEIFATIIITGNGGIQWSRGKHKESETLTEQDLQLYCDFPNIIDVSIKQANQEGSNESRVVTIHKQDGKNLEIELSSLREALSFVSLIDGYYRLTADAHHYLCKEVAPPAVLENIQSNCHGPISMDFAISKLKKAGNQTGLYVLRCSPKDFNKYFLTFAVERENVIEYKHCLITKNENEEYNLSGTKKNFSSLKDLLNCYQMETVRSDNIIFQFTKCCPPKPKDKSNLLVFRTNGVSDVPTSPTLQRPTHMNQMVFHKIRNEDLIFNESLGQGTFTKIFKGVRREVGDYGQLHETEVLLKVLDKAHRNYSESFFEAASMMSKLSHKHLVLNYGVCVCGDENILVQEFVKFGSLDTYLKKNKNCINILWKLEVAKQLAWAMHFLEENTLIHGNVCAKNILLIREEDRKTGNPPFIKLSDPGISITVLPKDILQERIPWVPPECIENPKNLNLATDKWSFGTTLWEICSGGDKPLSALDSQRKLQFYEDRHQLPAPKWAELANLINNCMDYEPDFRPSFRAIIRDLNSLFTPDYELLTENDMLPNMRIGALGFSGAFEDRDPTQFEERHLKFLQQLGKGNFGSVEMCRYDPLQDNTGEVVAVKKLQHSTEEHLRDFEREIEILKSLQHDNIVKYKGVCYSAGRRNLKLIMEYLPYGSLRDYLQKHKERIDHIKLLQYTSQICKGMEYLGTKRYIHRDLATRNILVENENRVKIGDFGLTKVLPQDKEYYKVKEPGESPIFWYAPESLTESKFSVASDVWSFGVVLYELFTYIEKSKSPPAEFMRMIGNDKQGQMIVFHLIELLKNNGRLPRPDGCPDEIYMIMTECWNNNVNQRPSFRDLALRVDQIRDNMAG

| SMILES | Ki [1] [µM] | Ki [2] [µM] | Ki [3] [µM] |
| --- | --- | --- | --- |
| C[C@@H](Nc1nc(-c2ccnc3[nH]ccc23)nc2ccccc12)C(=O)NCC(F)(F)F [compound 200] | 0.5 to 5 | 0.5 to 5 | > 4 |
| C[C@@H](Nc1nc(-c2ccnc3[nH]ccc23)ncc1F)C(=O)NCC(F)(F)F [compound 201] | < 0.5 | 0.5 to 5 | > 4 |
| C[C@@H](Nc1ccnc(-c2ccnc3[nH]ccc23)n1)C(=O)NCC(F)(F)F [compound 202] | < 0.5 | 0.5 to 5 | > 4 |
| Nc1nc(-c2ccnc3[nH]ccc23)ncc1F [compound 203] | 0.5 to 5 | 0.5 to 5 | > 4 |
| O=C(NCC(F)(F)F)[C@H](CO)Nc1nc(-c2ccnc3[nH]ccc23)ncc1F [compound 204] | < 0.5 | 0.5 to 5 | 0.5 to 5 |
| COc1ccc(F)cc1-c1ccnc2[nH]ccc12 [compound 205] | 0.5 to 5 | 0.5 to 5 | 0.5 to 5 |
| FC(F)(F)Oc1ccccc1-c1ccnc2[nH]ccc12 [compound 206] | 0.5 to 5 | 0.5 to 5 | > 4 |
| Fc1ccc(-c2ccnc3[nH]ccc23)c(F)c1 [compound 207] | < 0.5 | 0.5 to 5 | 0.5 to 5 |
| FC(F)(F)c1ccccc1-c1ccnc2[nH]ccc12 [compound 208] | > 5 | > 5 | 0.5 to 5 |
| Cc1ccc(C)c(-c2ccnc3[nH]ccc23)c1 [compound 209] | > 5 | > 5 | < 0.5 |
| Clc1ccc(-c2ccnc3[nH]ccc23)c(Cl)c1 [compound 210] | 0.5 to 5 | 0.5 to 5 | < 0.5 |
| Clc1ccc(Cl)c(-c2ccnc3[nH]ccc23)c1 [compound 211] | 0.5 to 5 | 0.5 to 5 | < 0.5 |
| Cc1cccc(-c2ccnc3[nH]ccc23)c1C [compound 212] | 0.5 to 5 | 0.5 to 5 | 0.5 to 5 |
| CC(=O)c1ccccc1-c1ccnc2[nH]ccc12 [compound 213] | > 5 | > 5 | > 4 |
| N#Cc1ccccc1-c1ccnc2[nH]ccc12 [compound 214] | 0.5 to 5 | > 5 | 0.5 to 5 |
| O=C(NCC(F)(F)F)[C@H]1CCCCN1c1ccnc(-c2ccnc3[nH]ccc23)n1 [compound 215] | < 0.5 | 0.5 to 5 | > 4 |
| Clc1ccccc1-c1ccnc2[nH]ccc12 [compound 216] | 0.5 to 5 | 0.5 to 5 | 0.5 to 5 |
| Cc1cccc(C)c1-c1ccnc2[nH]ccc12 [compound 217] | > 5 | > 5 | > 4 |
| Cc1ccc(-c2ccnc3[nH]ccc23)c(C)c1 [compound 218] | 0.5 to 5 | > 5 | < 0.5 |
| Cc1ccccc1-c1ccnc2[nH]ccc12 [compound 219] | 0.5 to 5 | > 5 | 0.5 to 5 |
| COc1ccc(-c2ccnc3[nH]ccc23)c(OC)c1 [compound 220] | 0.5 to 5 | 0.5 to 5 | 0.5 to 5 |
| COc1ccc(OC)c(-c2ccnc3[nH]ccc23)c1 [compound 221] | > 5 | > 5 | 0.5 to 5 |
| COc1cccc(OC)c1-c1ccnc2[nH]ccc12 [compound 222] | > 5 | > 5 | > 4 |
| CCOc1ccccc1-c1ccnc2[nH]ccc12 [compound 223] | 0.5 to 5 | 0.5 to 5 | 0.5 to 5 |
| Clc1cccc(-c2ccnc3[nH]ccc23)c1Cl [compound 224] | 0.5 to 5 | 0.5 to 5 | < 0.5 |
| c1ccc(COc2ccccc2-c2ccnc3[nH]ccc23)cc1 [compound 225] | > 5 | > 5 | > 4 |
| c1ccc(-c2ccccc2-c2ccnc3[nH]ccc23)cc1 [compound 226] | > 5 | > 5 | > 4 |

| SMILES | Ki [1] [µM] | Ki [2] [µM] | Ki [3] [µM] |
| --- | --- | --- | --- |
| c1cnc2c(-c3ccnc4[nH]ccc34)cccc2c1 [compound 227] | > 5 | > 5 | > 4 |
| O=C1NCCCC[C@@H]1Nc1c(Cl)cnc2[nH]ccc12 [compound 228] | < 0.5 | < 0.5 | > 4 |
| CC1CCC(Nc2c(Cl)cnc3[nH]ccc23)CC1 (stereo not drawn) [compound 229] | < 0.5 | < 0.5 | 0.5 to 5 |
| CC(C)Oc1ccccc1-c1ccnc2[nH]ccc12 [compound 230] | 0.5 to 5 | 0.5 to 5 | > 4 |
| CCc1ccccc1-c1ccnc2[nH]ccc12 [compound 231] | 0.5 to 5 | 0.5 to 5 | 0.5 to 5 |
| CC(C)(C)OCc1ccccc1-c1ccnc2[nH]ccc12 [compound 232] | > 5 | > 5 | > 4 |
| COc1cccc(-c2ccnc3[nH]ccc23)c1OC [compound 233] | 0.5 to 5 | > 5 | 0.5 to 5 |
| CCCOc1ccccc1-c1ccnc2[nH]ccc12 [compound 234] | 0.5 to 5 | > 5 | > 4 |
| COc1ccc(Cl)cc1-c1ccnc2[nH]ccc12 [compound 235] | 0.5 to 5 | 0.5 to 5 | 0.5 to 5 |
| Fc1ccccc1-c1ccnc2[nH]ccc12 [compound 236] | < 0.5 | 0.5 to 5 | < 0.5 |
| CCOc1ccc(Cl)cc1-c1ccnc2[nH]ccc12 [compound 237] | > 5 | 0.5 to 5 | 0.5 to 5 |
| O=C(O)c1ccccc1-c1ccnc2[nH]ccc12 [compound 238] | > 5 | > 5 | > 4 |
| CSc1ccccc1-c1ccnc2[nH]ccc12 [compound 239] | 0.5 to 5 | 0.5 to 5 | 0.5 to 5 |
| c1ccc(Oc2ccccc2-c2ccnc3[nH]ccc23)cc1 [compound 240] | > 5 | > 5 | > 4 |
| CCCCOc1ccccc1-c1ccnc2[nH]ccc12 [compound 241] | > 5 | > 5 | > 4 |
| Cc1cc(C)c(-c2ccnc3[nH]ccc23)c(C)c1 [compound 242] | > 5 | > 5 | > 4 |
| Cc1cc(F)ccc1-c1ccnc2[nH]ccc12 [compound 243] | 0.5 to 5 | > 5 | 0.5 to 5 |
| Cc1ccc(F)c(-c2ccnc3[nH]ccc23)c1Cl [compound 244] | 0.5 to 5 | > 5 | 0.5 to 5 |
| COc1cccc(Cl)c1-c1ccnc2[nH]ccc12 [compound 245] | > 5 | > 5 | > 4 |
| c1ccc2c(c1)Oc1c(cccc1-c1ccnc3[nH]ccc13)S2 [compound 246] | > 5 | > 5 | > 4 |
| CS(=O)(=O)Nc1ccccc1-c1ccnc2[nH]ccc12 [compound 247] | > 5 | > 5 | > 4 |
| Oc1ccccc1-c1ccnc2[nH]ccc12 [compound 248] | 0.5 to 5 | 0.5 to 5 | 0.5 to 5 |
| CCOc1cccc(-c2ccnc3[nH]ccc23)c1 [compound 249] | < 0.5 | < 0.5 | < 0.5 |
| c1cc(-c2cn[nH]c2)c2cc[nH]c2n1 [compound 250] | < 0.5 | < 0.5 | < 0.5 |
| O=C(NCC(F)(F)F)c1cccc(-c2ccnc3[nH]ccc23)c1 [compound 251] | < 0.5 | 0.5 to 5 | < 0.5 |
| O=C(NCCC(F)(F)F)c1cccc(-c2ccnc3[nH]ccc23)c1 [compound 252] | < 0.5 | 0.5 to 5 | 0.5 to 5 |
